Measured values published in US20090232853A1, “TREATMENT OF LAMINITIS” (priority 2005, published 2009).

How the values were obtained:
ponies = experiment: effect of dietary fructan carbohydrates on normal and laminitic ponies; type: in vivo
Excerpt: Eleven adult, native breed ponies were used in the diet study; 5 normals and 6 predisposed to laminitis (asymptomatic at the time of the study). A basal hay diet was fed for 2 weeks, prior to the inclusion of inulin (sourced from chicory root; 3 g/kg body weight per day), fed in 3 equal feeds. The daily forage ration also included ⅔ hay, by weight, and ⅓ Readigrass® (to act as a source of amino acids). Fecal and blood samples were taken during both diets to measure amine concentration (by HPLC and LC-MS, respectively) and fecal pH.

[1] = system: streptococci and lactobacilli in equine caecal contents; experiment: in vitro model of carbohydrate overload: enumeration of caecal streptococci and lactobacilli; design: species or system horses; conditions: virginiamycin 1 mg/100 ml, with corn starch or inulin
Protocol: Use of an in vitro model of carbohydrate overload to study the change in populations of caecal streptococci and lactobacilli and to establish whether certain species of these bacteria were capable of producing vasoactive amines from amino acids.
Caecal contents from 10 horses were divided into aliquots and incubated anaerobically with either corn starch or inulin (fructan; both 1 g 100 ml). Samples were taken at 6 h intervals over a 24 h period for enumeration of streptococci, lactobacilli and Gram-negative anaerobes by a dilution method onto standard selective growth media. […]
Effects of carbohydrate overload on numbers of (a) streptococci, (b) lactobacilli and (c) Gram-negative anaerobes in equine caecal contents incubated anaerobically in vitro. […] Bacterial numbers in each aliquot at 6 h intervals were determined by serial dilution of caecal contents in sterile RPS plated onto selective growth medium. […]
Effects of virginiamycin and calcium hydrogen-phosphate on numbers of Streptococcus and Lactobacillus spp. in equine caecal contents induced by incubation with starch or inulin. […] Bacterial numbers were measured at 0 and 24 h, expressed as CFU/ml, and the magnitude of the change over this period was calculated by dividing the number of bacteria present at 24 h by the initial figure (geometric mean±s.e.m. of estimates taken from 4 separate experiments).

[2] = system: equine digital blood vessels; experiment: isolated blood vessel work, isometric tension recording
Excerpt: The coronary band veins and the distal artery were dissected from equine hind limbs obtained from abattoir collections (animals euthanased for non related reasons), cut into rings of approximately 3 mm in length and prepared for isometric tension recording—a method established in the laboratory for looking at endothelium intact responses of equine digital.

[3] = system: Tyrosine decarboxylase (TDC); experiment: inhibition of decarboxylase activity; type: biochemical; conditions: tyrosine to tyramine by TDC
Excerpt: Tyrosine decarboxylase (TDC) decarboxylases tyrosine to tyramine.

[4] = inulin diet vs basal hay diet, FIG. 12

Molecule: inulin
- signs of laminitis (ponies; inulin 3 g/kg body weight per day in 3 feeds, 5 normal and 6 laminitis-predisposed ponies): No animal showed any signs of laminitis
- increase in tryptamine concentration (ponies; [4]): 58.6%
- increase in tyramine concentration (ponies; [4]): 23.3%

Molecule: virginiamycin
- effect on carbohydrate-induced increases in numbers of streptococci and lactobacilli [1]: abrogated

Molecule: CC(=O)N[C@@H](CS)C(=O)O [NAC, N-acetyl cysteine]
- relaxation of isolated digital blood vessels ([2]; antioxidant added to the medium, vs control, FIG. 14): increase the relaxation above that of the control
- contraction of digital veins in response to vasoactive amines ([2]; pre incubation in the medium, response to Tryptamine, FIG. 15): reduced contraction

Molecule: O=c1c(-c2ccc(O)cc2)coc2cc(O)cc(O)c12 [genestin]
- reduction of contraction of digital veins in response to vasoactive amines ([2]; flavonoid added to the medium, response to Tryptamine, FIG. 15): 30%

Molecule: C[C@@](Cc1ccc(O)c(O)c1)(NN)C(=O)O [carbidopa]
- production of tyramine [3]: inhibited

Molecule: NC(CO)C(=O)NNCc1ccc(O)c(O)c1O (stereo not drawn) [benserazide]
- production of tyramine [3]: inhibited
